Values of other authors in patent US6849617B2, “Tissue factor antagonists and methods of use thereof” (Sunol Molecular Corporation, priority 1999, dated 2005).

Molecular target: tissue factor (TF) (Homo sapiens, UniProt P13726)
Conditions: as disclosed in U.S. application Ser. No. 09/406269

tissue factor (TF), sequence (P13726 33-295): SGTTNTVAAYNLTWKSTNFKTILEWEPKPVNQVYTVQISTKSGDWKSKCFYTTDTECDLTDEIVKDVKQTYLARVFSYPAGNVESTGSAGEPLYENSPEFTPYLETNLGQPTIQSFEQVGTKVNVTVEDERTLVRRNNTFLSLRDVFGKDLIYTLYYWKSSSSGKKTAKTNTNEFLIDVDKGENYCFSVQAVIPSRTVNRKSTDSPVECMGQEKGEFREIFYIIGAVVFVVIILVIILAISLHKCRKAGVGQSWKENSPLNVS

- TF antagonist activity: effective TF antagonist
SMILES: NCCCC(O)(P(=O)(O)O)P(=O)(O)O [alendronic acid]
